Measurements published in the supplement of paper PMC11061612.

Key:
Assay in all cases: combination Emax (second highest fraction inhibited in the dose matrix, 72 h); higher = more inhibition; extreme values may be limits of the assay
8-MG-BA (Glioblastoma) = system: 8-MG-BA (Glioblastoma)
Summary of the method: (§1)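 Cell lines in DMEM/F12 or RPMI with 10% FBS were plated in 1536-well plates, held 24 hours at 37°C, 5% CO2, then given two-drug dose matrices for 72 hours (DMSO typically 0.2%). Viability was read by CellTiter-Glo 2.0 luminescence and scaled as inhibition from 0 (vehicle wells) to 1 (blank wells). Combination Emax is the second-highest inhibition in the matrix; Bliss excess is observed combination effect minus expected EA + EB − EA·EB, EA and EB being single-agent effects.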

[1] = system: A3-KAW (B-Cell Non-Hodgkin's Lymphoma)
Summary of the method: as §1

A498 (Kidney Carcinoma) = system: A498 (Kidney Carcinoma)
Summary of the method: as §1

[2] = system: A549 (Lung Adenocarcinoma)
Summary of the method: as §1

ARH-77 (Non-Cancerous) = system: ARH-77 (Non-Cancerous)
Summary of the method: as §1

[3] = system: BICR22 (Oral Cavity Carcinoma)
Summary of the method: as §1

[4] = system: CAL-29 (Bladder Carcinoma)
Summary of the method: as §1

[5] = system: CAPAN-2 (Pancreatic Carcinoma)
Summary of the method: as §1

CAS-1 (Glioblastoma) = system: CAS-1 (Glioblastoma)
Summary of the method: as §1

[6] = system: COR-L311 (Small Cell Lung Carcinoma)
Summary of the method: as §1

Hs-445 (Non-Cancerous) = system: Hs-445 (Non-Cancerous)
Summary of the method: as §1

IGR-37 (Melanoma) = system: IGR-37 (Melanoma)
Summary of the method: as §1

[7] = system: JSC-1 (B-Cell Non-Hodgkin's Lymphoma)
Summary of the method: as §1

NY (Osteosarcoma) = system: NY (Osteosarcoma)
Summary of the method: as §1

[8] = system: ONS-76 (Other Solid Carcinomas)
Summary of the method: as §1

[9] = system: OS-RC-2 (Kidney Carcinoma)
Summary of the method: as §1

[10] = system: PANC-10-05 (Pancreatic Carcinoma)
Summary of the method: as §1

[11] = system: SISO (Cervical Carcinoma)
Summary of the method: as §1

[12] = system: TT (Thyroid Gland Carcinoma)
Summary of the method: as §1

[13] = system: VCaP (Prostate Carcinoma)
Summary of the method: as §1

| SMILES | combination Emax (8-MG-BA (Glioblastoma)) | combination Emax [1] | combination Emax (A498 (Kidney Carcinoma)) | combination Emax [2] | combination Emax (ARH-77 (Non-Cancerous)) | combination Emax [3] | combination Emax [4] | combination Emax [5] | combination Emax (CAS-1 (Glioblastoma)) | combination Emax [6] | combination Emax (Hs-445 (Non-Cancerous)) | combination Emax (IGR-37 (Melanoma)) | combination Emax [7] | combination Emax (NY (Osteosarcoma)) | combination Emax [8] | combination Emax [9] | combination Emax [10] | combination Emax [11] | combination Emax [12] | combination Emax [13] |
| --- | --- | --- | --- | --- | --- | --- | --- | --- | --- | --- | --- | --- | --- | --- | --- | --- | --- | --- | --- | --- |
| Cc1nc(Nc2ncc(C(=O)Nc3c(C)cccc3Cl)s2)cc(N2CCN(CCO)CC2)n1 [Dasatinib] + CC(=O)Nc1cccc(-n2c(=O)n(C3CC3)c(=O)c3c(Nc4ccc(I)cc4F)n(C)c(=O)c(C)c32)c1 [Trametinib] (first compound max 2 µM, 7x7, partner max 1 µM) | 0.756 | 0.464 | 0.503 | 0.97 | 0.635 | 0.615 | 0.625 | 0.892 | 0.946 | 0.0652 | 0.517 | 0.838 | 0.543 | 0.738 | 0.888 | 0.353 | 0.877 | 0.157 | 0.441 | 0.0632 |
| COc1cccc2c1C(=O)c1c(O)c3c(c(O)c1C2=O)C[C@@](O)(C(=O)CO)C[C@@H]3O[C@H]1C[C@H](N)[C@H](O)[C@H](C)O1 [Doxorubicin] + Cc1cc2ncnn2cc1Nc1ncc2c(n1)n(C1CCOCC1)c(=O)n2C [AZD7648] (first compound max 1 µM, 7x7, partner max 10 µM) | 0.938 | 0.984 | 0.598 | 0.906 | 0.972 | 0.945 | 0.735 | 0.197 | 0.775 | 0.87 | 0.94 | 0.777 | 0.97 | 0.581 | 0.935 | 0.348 | 0.715 | 0.909 | 0.604 | 0.641 |
| COc1cc2ncnc(Nc3ccc(F)c(Cl)c3)c2cc1OCCCN1CCOCC1 [Gefitinib] + CC(C)n1c(=O)n(C)c2cnc3cc(F)c(-c4ccc(OCCCN5CCCCC5)nc4)cc3c21 [AZD1390] (first compound max 10 µM, 7x7, partner max 0.3 µM) | 0.268 | 0.605 | 0.298 | 0.435 | 0.272 | 0.272 | 0.228 | 0.148 | 0.134 | 0.0812 | 0.369 | 0.252 | 0.249 | 0.239 | 0.11 | 0.145 | 0.202 | 0.0311 | 0.118 | 0.0675 |
| CS(=O)(=O)CCNCc1ccc(-c2ccc3ncnc(Nc4ccc(OCc5cccc(F)c5)c(Cl)c4)c3c2)o1 [Lapatinib] + C[C@@H](Oc1cc(-c2cnn(C3CCNCC3)c2)cnc1N)c1c(Cl)ccc(F)c1Cl [Crizotinib] (first compound max 10 µM, 7x7, partner max 10 µM) | 0.998 | 0.968 | 0.926 | 0.988 | 0.942 | 0.933 | 0.952 | 0.741 | 0.962 | 0.924 | 0.783 | 0.906 | 0.925 | 0.341 | 0.73 | 0.584 | 0.675 | 0.626 | 0.409 | 0.465 |
| CC(=O)c1c(C)c2cnc(Nc3ccc(N4CCNCC4)cn3)nc2n(C2CCCC2)c1=O [Palbociclib] + CC1(C)CCC(CN2CCN(c3ccc(C(=O)NS(=O)(=O)c4ccc(NCC5CCOCC5)c([N+](=O)[O-])c4)c(Oc4cnc5[nH]ccc5c4)c3)CC2)=C(c2ccc(Cl)cc2)C1 [Venetoclax] (first compound max 10 µM, 7x7, partner max 1 µM) | 0.366 | 0.826 | 0.318 | 0.64 | 0.725 | 0.209 | 0.0999 | 0.0393 | 0.274 | 0.632 | 0.746 | 0.215 | 0.506 | 0.0868 | 0.364 | 0.155 | 0.275 | 0.0637 | 0.295 | 0.164 |
| CC(=O)c1c(C)c2cnc(Nc3ccc(N4CCNCC4)cn3)nc2n(C2CCCC2)c1=O [Palbociclib] + Cc1c2c(nn1C)CSCc1cc(n(C)n1)CSc1cc(c3ccccc3c1)OCCCc1c(C(=O)O)n(C)c3c-2c(Cl)ccc13 [AZD5991] (first compound max 10 µM, 7x7, partner max 1 µM) | 0.63 | 1 | 0.406 | 0.64 | 0.556 | 0.176 | 0.175 | 0.139 | 0.32 | 0.534 | 0.337 | 0.325 | 1 | 0.534 | 0.357 | 0.232 | 0.329 | 0.127 | 0.419 | 0.855 |
| CC(=O)c1c(C)c2cnc(Nc3ccc(N4CCNCC4)cn3)nc2n(C2CCCC2)c1=O [Palbociclib] + Cn1cnc2c(F)c(Nc3ccc(Br)cc3Cl)c(C(=O)NOCCO)cc21 [Selumetinib] (first compound max 10 µM, 7x7, partner max 10 µM) | 0.321 | 0.869 | 0.372 | 0.764 | 0.61 | 0.477 | 0.301 | 0.356 | 0.289 | 0.231 | 0.262 | 0.872 | 0.633 | 0.194 | 0.734 | 0.235 | 0.521 | 0.17 | 0.349 | 0.159 |
